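Method: 48-hour compound exposure of cells in 96-well plates, five concentrations, linear interpolation of endpoints. TGI denotes the concentration required for complete inhibition of growth.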
Columns and labels:
Assay in all cases: NCI-60 cell line screen, 48 h
[1] = test system: OVCAR-3 ovarian
[2] = test system: MOLT-4 leukemia
[3] = test system: M14 melanoma
[4] = test system: SF-268 CNS
[5] = test system: RPMI-8226 leukemia
[6] = test system: DU-145 prostate
[7] = test system: OVCAR-4 ovarian
[8] = test system: KM12 colon
[9] = test system: HCT-15 colon
[10] = test system: MDA-MB-435
[11] = test system: SK-OV-3 ovarian
[12] = test system: HS 578T breast
[13] = test system: MCF7 breast
[14] = test system: HT29 colon
[15] = test system: TK-10 renal
[16] = test system: NCI/ADR-RES ovarian
[17] = test system: IGROV1 ovarian
[18] = test system: K-562 leukemia
[19] = test system: HL-60(TB) leukemia
[20] = test system: BT-549 breast
[21] = test system: HOP-92 NSCLC
[22] = test system: UO-31 renal
[23] = test system: ACHN renal
[24] = test system: LOX IMVI melanoma
[25] = test system: COLO 205 colon
[26] = test system: UACC-257 melanoma
[27] = test system: PC-3 prostate
[28] = test system: SK-MEL-2 melanoma
[29] = test system: SN12C renal
[30] = test system: NCI-H23 lung
[31] = test system: SK-MEL-28 melanoma
[32] = test system: CAKI-1 renal
[33] = test system: OVCAR-5 ovarian
[34] = test system: SK-MEL-5 melanoma
[35] = test system: SNB-75 CNS
[36] = test system: NCI-H226 lung
[37] = test system: SR leukemia
[38] = test system: A498 renal
[39] = test system: HOP-62 NSCLC
[40] = test system: SF-539 CNS
[41] = test system: RXF 393 renal
[42] = test system: SW-620 colon
[43] = test system: T-47D breast
[44] = test system: HCT-116 colon
[45] = test system: MDA-MB-231 breast
[46] = test system: EKVX NSCLC
[47] = test system: MALME-3M melanoma
[48] = test system: 786-0 renal
[49] = test system: MDA-N
[50] = test system: A549 NSCLC
[51] = test system: U251 CNS
[52] = test system: OVCAR-8 ovarian
[53] = test system: SF-295 CNS
[54] = test system: CCRF-CEM leukemia
[55] = test system: SNB-19 CNS
[56] = test system: NCI-H522 lung
[57] = test system: UACC-62 melanoma
[58] = test system: NCI-H460 lung
[59] = test system: HCC-2998 colon

COc1c(Cl)ccc(Cl)c1C(=O)NNC(=O)c1c(Cl)c(Cl)c(Cl)c(Cl)c1-c1nc2ccc(C(=O)c3ccccc3)cc2[nH]1
TGI [1]: > 100 µM
TGI [2]: > 100 µM
TGI [3]: > 100 µM
TGI [4]: > 100 µM
TGI [5]: 90.8 µM
TGI [6]: > 100 µM
TGI [7]: > 100 µM
TGI [8]: > 100 µM
TGI [9]: > 100 µM
TGI [10]: > 100 µM
TGI [11]: > 100 µM
TGI [12]: > 100 µM
TGI [13]: > 100 µM
TGI [14]: > 100 µM
TGI [15]: > 100 µM
TGI [16]: > 100 µM
TGI [17]: > 100 µM
TGI [18]: > 100 µM
TGI [19]: > 100 µM
TGI [20]: > 100 µM
TGI [21]: > 100 µM
TGI [22]: > 100 µM
TGI [23]: > 100 µM
TGI [24]: > 100 µM
TGI [25]: > 100 µM
TGI [26]: > 100 µM
TGI [27]: > 100 µM
TGI [28]: > 100 µM
TGI [29]: > 100 µM
TGI [30]: > 100 µM
TGI [31]: > 100 µM
TGI [32]: > 100 µM
TGI [33]: > 100 µM
TGI [34]: > 100 µM
TGI [35]: > 100 µM
TGI [36]: > 100 µM
TGI [37]: > 100 µM
TGI [38]: > 100 µM
TGI [39]: > 100 µM
TGI [40]: > 100 µM
TGI [41]: > 100 µM
TGI [42]: > 100 µM
TGI [43]: > 100 µM
TGI [44]: > 100 µM
TGI [45]: > 100 µM
TGI [46]: > 100 µM
TGI [47]: > 100 µM
TGI [48]: > 100 µM
TGI [49]: > 100 µM
TGI [50]: > 100 µM
TGI [51]: > 100 µM
TGI [52]: > 100 µM
TGI [53]: > 100 µM
TGI [54]: > 100 µM
TGI [55]: > 100 µM
TGI [56]: > 100 µM

O=C1C2CC(Cl)C(SSC3CC4C(=O)N(SC(Cl)(Cl)C(Cl)Cl)C(=O)C4CC3Cl)CC2C(=O)N1SC(Cl)(Cl)C(Cl)Cl (configuration not stated)
TGI [57]: 4.49 µM
TGI [1]: 5.07 µM
TGI [2]: 1.35 µM
TGI [3]: 2.88 µM
TGI [4]: 3.91 µM
TGI [5]: 5.35 µM
TGI [6]: 9.44 µM
TGI [7]: 4.31 µM
TGI [8]: > 51 µM
TGI [10]: 6.23 µM
TGI [11]: 8.53 µM
TGI [12]: > 22.8 µM
TGI [13]: 7.67 µM
TGI [15]: 7.07 µM
TGI [16]: 6.05 µM
TGI [17]: 3.06 µM
TGI [18]: 5.01 µM
TGI [19]: 1.83 µM
TGI [20]: 3.41 µM
TGI [21]: 3 µM
TGI [22]: 4.82 µM
TGI [23]: 6.66 µM
TGI [24]: 3.03 µM
TGI [25]: 4.87 µM
TGI [26]: 5.79 µM
TGI [27]: 2.79 µM
TGI [28]: 3.65 µM
TGI [29]: 5.24 µM
TGI [30]: 5.65 µM
TGI [58]: 13.4 µM
TGI [31]: 6.18 µM
TGI [32]: 6.7 µM
TGI [33]: 66.3 µM
TGI [34]: 4.55 µM
TGI [35]: 6.12 µM
TGI [36]: 26.4 µM
TGI [37]: 1.21 µM
TGI [38]: 7.73 µM
TGI [59]: 16.4 µM
TGI [39]: 8.64 µM
TGI [40]: 6.89 µM
TGI [41]: 3.17 µM
TGI [42]: 5.09 µM
TGI [43]: 7.18 µM
TGI [44]: 7.38 µM
TGI [45]: 3.16 µM
TGI [46]: 15.5 µM
TGI [47]: 2.86 µM
TGI [48]: 3.65 µM
TGI [49]: 6.71 µM
TGI [50]: 28.3 µM
TGI [51]: 3.75 µM
TGI [52]: 3.5 µM
TGI [53]: 17.1 µM
TGI [55]: 12.7 µM
TGI [56]: 1.5 µM
